Data from PubChem BioAssay (NCI).
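In this assay, cells in 96-well plates receive the compound at five concentrations for 48 hours. Endpoints are linearly interpolated between the surrounding concentrations. Definition used: TGI = concentration required for complete inhibition of growth.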

Each molecule was assayed on HCT-15 colon (assay: growth of human tumour cells (NCI), 48 h).

Row | SMILES | TGI [µM]
1 | O=Cc1c(O)ccc2ccc(O)c(-c3c(O)ccc4ccc(O)cc34)c12 | > 100
2 | COc1ccc(/C=C/C(=O)C(C)(C)C)cc1OC | > 100
3 | CCOP(=S)(OCC)Oc1ccc2c(c1)OC(=O)C1(Cl)C2(C)C2(Cl)C(=O)Oc3cc(OP(=S)(OCC)OCC)ccc3C12C (centres undefined) | 41.6
4 | CCCCC1CC(c2ccc(Cl)cc2)=NO1 (centres undefined) | > 100

The molecules below were run on MALME-3M melanoma (assay: growth of human tumour cells (NCI), 48 h).

Row | SMILES | TGI [µM]
5 | N#Cc1c2c(c(Cl)n3c1nc1ccccc13)CCCC2 | 27
6 | O=Cc1c(O)ccc2ccc(O)c(-c3c(O)ccc4ccc(O)cc34)c12 | > 100
7 | CCOP(=S)(OCC)Oc1ccc2c(c1)OC(=O)C1(Cl)C2(C)C2(Cl)C(=O)Oc3cc(OP(=S)(OCC)OCC)ccc3C12C (centres undefined) | 43.8
8 | CCCCC1CC(c2ccc(Cl)cc2)=NO1 (centres undefined) | > 100

What follows are molecules tested on HL-60(TB) leukemia (assay: growth of human tumour cells (NCI), 48 h).

Row | SMILES | TGI [µM]
9 | N#Cc1c2c(c(Cl)n3c1nc1ccccc13)CCCC2 | 5.25
10 | O=Cc1c(O)ccc2ccc(O)c(-c3c(O)ccc4ccc(O)cc34)c12 | > 100
11 | CCOP(=S)(OCC)Oc1ccc2c(c1)OC(=O)C1(Cl)C2(C)C2(Cl)C(=O)Oc3cc(OP(=S)(OCC)OCC)ccc3C12C (centres undefined) | 34.4
12 | CCCCC1CC(c2ccc(Cl)cc2)=NO1 (centres undefined) | > 100

The molecules below were run on KM12 colon (assay: growth of human tumour cells (NCI), 48 h).

Row | SMILES | TGI [µM]
13 | O=Cc1c(O)ccc2ccc(O)c(-c3c(O)ccc4ccc(O)cc34)c12 | > 100
14 | COc1ccc(/C=C/C(=O)C(C)(C)C)cc1OC | > 100
15 | CCOP(=S)(OCC)Oc1ccc2c(c1)OC(=O)C1(Cl)C2(C)C2(Cl)C(=O)Oc3cc(OP(=S)(OCC)OCC)ccc3C12C (centres undefined) | 30.7
16 | CCCCC1CC(c2ccc(Cl)cc2)=NO1 (centres undefined) | > 100

The molecules below were run on 786-0 renal (assay: growth of human tumour cells (NCI), 48 h).

Row | SMILES | TGI [µM]
17 | N#Cc1c2c(c(Cl)n3c1nc1ccccc13)CCCC2 | 3.33
18 | O=Cc1c(O)ccc2ccc(O)c(-c3c(O)ccc4ccc(O)cc34)c12 | > 100
19 | CCOP(=S)(OCC)Oc1ccc2c(c1)OC(=O)C1(Cl)C2(C)C2(Cl)C(=O)Oc3cc(OP(=S)(OCC)OCC)ccc3C12C (centres undefined) | 44.9
20 | CCCCC1CC(c2ccc(Cl)cc2)=NO1 (centres undefined) | > 100

These molecules were tested on COLO 205 colon (assay: growth of human tumour cells (NCI), 48 h).

Row | SMILES | TGI [µM]
21 | N#Cc1c2c(c(Cl)n3c1nc1ccccc13)CCCC2 | 17.7
22 | O=Cc1c(O)ccc2ccc(O)c(-c3c(O)ccc4ccc(O)cc34)c12 | > 100
23 | COc1ccc(/C=C/C(=O)C(C)(C)C)cc1OC | > 100
24 | CCOP(=S)(OCC)Oc1ccc2c(c1)OC(=O)C1(Cl)C2(C)C2(Cl)C(=O)Oc3cc(OP(=S)(OCC)OCC)ccc3C12C (centres undefined) | 34.3
25 | CCCCC1CC(c2ccc(Cl)cc2)=NO1 (centres undefined) | > 100

Each molecule was assayed on NCI-H522 lung (assay: growth of human tumour cells (NCI), 48 h).

Row | SMILES | TGI [µM]
26 | O=Cc1c(O)ccc2ccc(O)c(-c3c(O)ccc4ccc(O)cc34)c12 | > 100
27 | COc1ccc(/C=C/C(=O)C(C)(C)C)cc1OC | > 100
28 | CCOP(=S)(OCC)Oc1ccc2c(c1)OC(=O)C1(Cl)C2(C)C2(Cl)C(=O)Oc3cc(OP(=S)(OCC)OCC)ccc3C12C (centres undefined) | 22.3
29 | CCCCC1CC(c2ccc(Cl)cc2)=NO1 (centres undefined) | > 100

These molecules were tested on NCI-H226 lung (assay: growth of human tumour cells (NCI), 48 h).

Row | SMILES | TGI [µM]
30 | O=Cc1c(O)ccc2ccc(O)c(-c3c(O)ccc4ccc(O)cc34)c12 | 95.1
31 | CCOP(=S)(OCC)Oc1ccc2c(c1)OC(=O)C1(Cl)C2(C)C2(Cl)C(=O)Oc3cc(OP(=S)(OCC)OCC)ccc3C12C (centres undefined) | 31.1
32 | CCCCC1CC(c2ccc(Cl)cc2)=NO1 (centres undefined) | > 100

Each molecule was assayed on UACC-62 melanoma (assay: growth of human tumour cells (NCI), 48 h).

Row | SMILES | TGI [µM]
33 | O=Cc1c(O)ccc2ccc(O)c(-c3c(O)ccc4ccc(O)cc34)c12 | > 100
34 | COc1ccc(/C=C/C(=O)C(C)(C)C)cc1OC | > 100
35 | CCOP(=S)(OCC)Oc1ccc2c(c1)OC(=O)C1(Cl)C2(C)C2(Cl)C(=O)Oc3cc(OP(=S)(OCC)OCC)ccc3C12C (centres undefined) | 26.6
36 | CCCCC1CC(c2ccc(Cl)cc2)=NO1 (centres undefined) | > 100

What follows are molecules tested on SN12C renal (assay: growth of human tumour cells (NCI), 48 h).

Row | SMILES | TGI [µM]
37 | N#Cc1c2c(c(Cl)n3c1nc1ccccc13)CCCC2 | 4.74
38 | O=Cc1c(O)ccc2ccc(O)c(-c3c(O)ccc4ccc(O)cc34)c12 | > 100
39 | COc1ccc(/C=C/C(=O)C(C)(C)C)cc1OC | > 100
40 | CCOP(=S)(OCC)Oc1ccc2c(c1)OC(=O)C1(Cl)C2(C)C2(Cl)C(=O)Oc3cc(OP(=S)(OCC)OCC)ccc3C12C (centres undefined) | 39.3
41 | CCCCC1CC(c2ccc(Cl)cc2)=NO1 (centres undefined) | > 100

Each molecule was assayed on SF-295 CNS (assay: growth of human tumour cells (NCI), 48 h).

Row | SMILES | TGI [µM]
42 | N#Cc1c2c(c(Cl)n3c1nc1ccccc13)CCCC2 | 16.6
43 | O=Cc1c(O)ccc2ccc(O)c(-c3c(O)ccc4ccc(O)cc34)c12 | > 100
44 | COc1ccc(/C=C/C(=O)C(C)(C)C)cc1OC | > 100
45 | CCOP(=S)(OCC)Oc1ccc2c(c1)OC(=O)C1(Cl)C2(C)C2(Cl)C(=O)Oc3cc(OP(=S)(OCC)OCC)ccc3C12C (centres undefined) | 29.7
46 | CCCCC1CC(c2ccc(Cl)cc2)=NO1 (centres undefined) | > 100

These molecules were tested on ACHN renal (assay: growth of human tumour cells (NCI), 48 h).

Row | SMILES | TGI [µM]
47 | N#Cc1c2c(c(Cl)n3c1nc1ccccc13)CCCC2 | 12.4
48 | O=Cc1c(O)ccc2ccc(O)c(-c3c(O)ccc4ccc(O)cc34)c12 | > 100
49 | COc1ccc(/C=C/C(=O)C(C)(C)C)cc1OC | > 100
50 | CCOP(=S)(OCC)Oc1ccc2c(c1)OC(=O)C1(Cl)C2(C)C2(Cl)C(=O)Oc3cc(OP(=S)(OCC)OCC)ccc3C12C (centres undefined) | 43.4
51 | CCCCC1CC(c2ccc(Cl)cc2)=NO1 (centres undefined) | > 100

These molecules were tested on CAKI-1 renal (assay: growth of human tumour cells (NCI), 48 h).

Row | SMILES | TGI [µM]
52 | N#Cc1c2c(c(Cl)n3c1nc1ccccc13)CCCC2 | 11.8
53 | O=Cc1c(O)ccc2ccc(O)c(-c3c(O)ccc4ccc(O)cc34)c12 | > 100
54 | COc1ccc(/C=C/C(=O)C(C)(C)C)cc1OC | > 100
55 | CCOP(=S)(OCC)Oc1ccc2c(c1)OC(=O)C1(Cl)C2(C)C2(Cl)C(=O)Oc3cc(OP(=S)(OCC)OCC)ccc3C12C (centres undefined) | 41.8
56 | CCCCC1CC(c2ccc(Cl)cc2)=NO1 (centres undefined) | > 100

The molecules below were run on SF-539 CNS (assay: growth of human tumour cells (NCI), 48 h).

Row | SMILES | TGI [µM]
57 | N#Cc1c2c(c(Cl)n3c1nc1ccccc13)CCCC2 | 14
58 | O=Cc1c(O)ccc2ccc(O)c(-c3c(O)ccc4ccc(O)cc34)c12 | > 100
59 | CCOP(=S)(OCC)Oc1ccc2c(c1)OC(=O)C1(Cl)C2(C)C2(Cl)C(=O)Oc3cc(OP(=S)(OCC)OCC)ccc3C12C (centres undefined) | 24.7
60 | CCCCC1CC(c2ccc(Cl)cc2)=NO1 (centres undefined) | > 100

What follows are molecules tested on HCC-2998 colon (assay: growth of human tumour cells (NCI), 48 h).

Row | SMILES | TGI [µM]
61 | N#Cc1c2c(c(Cl)n3c1nc1ccccc13)CCCC2 | 30.8
62 | COc1ccc(/C=C/C(=O)C(C)(C)C)cc1OC | > 100
63 | CCOP(=S)(OCC)Oc1ccc2c(c1)OC(=O)C1(Cl)C2(C)C2(Cl)C(=O)Oc3cc(OP(=S)(OCC)OCC)ccc3C12C (centres undefined) | 33.9
64 | CCCCC1CC(c2ccc(Cl)cc2)=NO1 (centres undefined) | > 100
